Laboratory results from patent US7674823B2, “DNA-PK inhibitors” (Cancer Research Technology Limited, priority 2001, dated 2010).
Read-outs that look alike come from different tables or passages of the source.

Legend:
PI 3-kinase (p110α/p85α) [1] = target: T1, PI 3-kinase (p110α/p85α) (UniProt P32871); experiment: PI 3-kinase inhibition assay; assay type: biochemical; conditions: GST-fused p110α/p85α
T1 construct: other: GST-fused p110α/p85α
Text: (§1) In order to assess the inhibitory action of the compounds against PI 3-kinase in vitro, the following assay was used to determine IC50 values.
(§2) Baculoviral recombinant GST-fused PI 3-kinase (p110α/p85α) was purified from Sf9 insect cells using GSH-sepharose affinity chromatography as described (Wymann, M. T et al., (1996) Wortmannin inactivates phosphoinositide 3-kinase by covalent modification of Lys-802, a residue involved in the phosphate transfer reaction. Mol. Cell Biol. 16:1722-1733). PI 3-kinase (1 μl) was diluted in reaction buffer (89 μl of 50 mM Hepes pH 7.5, 150 mM NaCl, 0.1 mM Sodium Orthovanadate, containing 20 μg of phosphatidylinositol) and varying concentrations of inhibitor compound added. […] Reactions were incubated for a further 20 minutes at 37° C., before quenching with the addition of 400 μl of chloroform/methanol (1:1). Reactions were acidified by the addition of 200 μl of 1M HCl, before separation of the organic and aqueous phases by centrifugation at 10,000 g for 30 seconds. The organic phase was transferred to a fresh tube and washed twice with 150 μl of 1M hydrochloric acid/methanol (1:1), discarding the aqueous phase. The washed reaction product was then placed in a white 96-well plate with 100 μl of scintillation fluid and transferred to a TopCount NXT for scintillation counting. Counts per minute, following a one minute counting time, were recorded for each reaction. The inhibition of PI 3-kinase activity by compounds was calculated as described above for the DNA-PK assay.
(§3) The selectivity was determined by the following equation: […]

PI 3-kinase (p110α/p85α) [2] = experiment: PI 3-kinase inhibition assay; assay type: biochemical; conditions: selectivity ratio from the IC50s for PI 3-kinase and DNA-PK
Text: as §1, §2, §3

[3] = target: T2, Mammalian DNA-PK, isolated from Hela cell nuclear extract (Homo sapiens, UniProt P78527); experiment: DNA-PK inhibition assay (33P-ATP, filter binding); assay type: biochemical
T2 construct: Mammalian DNA-PK, isolated from Hela cell nuclear extract; endogenous in cells; host or cells: HeLa cell nuclear extract (purified per Gell and Jackson 1999)
Method in brief: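 DNA-PK from HeLa nuclear extract preincubated with compound 10 min at 30 °C, then started with 50 μM Na-ATP final, ^33P-γATP and 30mer dsDNA (10 ng/μl), run 45 min at 30 °C.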

HeLa cells = experiment: Enhancement Ratio: cell growth inhibition (SRB assay) after 2 Gy irradiation; assay type: cell-based; conditions: inhibitor 25 μM
Protocol: DNA-PK inhibitors were used at a fixed concentration of 25 micromolar. Radiation was delivered by a Faxitron 43855D X-ray system at a dose rate of 1Gy per minute The Enhancement ratio at 2 Gy irradiation was calculated from the formula: [formula] Cell growth was assessed using the sulforhodamine B (SRB) assay (Skehan, P., Storung, R., Scudiero, R., Monks, […]., Kenny, S. and Boyd, M. R. (1990) New calorimetric cytotoxicity assay for anticancer-drug screening. J. Natl. Cancer Inst. 82:1107-1112). 400 HeLa cells were seeded into each well of a flat-bottomed 48-well microtiter plate in a volume of 200 μl and incubated for 6 h at 37° C. […] Cells were allowed to grow for a further 1 h before irradiation or mock irradiation. Cells untreated with DNA-PK inhibitor or unirradiated were used as a control. Cells treated with DNA-PK inhibitor alone were used to assess the growth inhibition by the DNA-PK inhibitor. Cells were left for a further 16 h before replacing the media and allowing the cells to grow for a further 6 days at 37° C. The media was then removed and the cells fixed with 200 μl of ice cold 10% (w/v) trichloroacetic acid. The plates were incubated at 4° C. for 20 minutes and then washed four times with water. Each well of cells was then stained with 200 μl of 0.4% (w/v) SRB in 1% acetic acid for 20 minutes before washing four times with 1% acetic acid. Plates were then dried for 2 h at room temperature. The dye from the stained cells was solubilized by the addition of 100 μl of 10 mM Tris Base into each well. Plates were gently shaken and left at room temperature for 30 minutes before measuring the optical density at 564 nm on a Microquant microtiter plate reader.

[4] = IC50 of less than about 1 μM and/or % inhibition of more than about 50 at 1 μM, read-out: DNA-PK inhibition IC50 (particular efficacy)
[5] = concentration at which 50% of the enzyme activity is inhibited, read-out: DNA-PK Inhibition IC50

IC50 (PI 3-kinase (p110α/p85α) [1]) [nM] | Δ(DNA-PK/PI 3-K) (PI 3-kinase (p110α/p85α) [2]) | IC50 [3, 4] [nM] | IC50 [3, 5] [nM] | melting point [°C] | SMILES | Enhancement Ratio (ER) (HeLa cells)
18000 | 36 | < 1000 | 500 | 220 to 222 | O=c1cc(N2CCOCC2)oc2c3c(ccc12)CCCC3 [Compound 297, 7,8,9,10-tetrahydro-benzo[h]-2-(morpholin-4-yl)-chromen-4-one] | 2.12
2500 | 8 | < 1000 | 300 | 181 to 183 | CC1CN(c2cc(=O)c3ccc4ccccc4c3o2)CCO1 (stereo not drawn) [Compound 317, 2-(2-Methyl-morpholin-4-yl)-benzo[h]chromen-4-one] | 3.62
6000 | 12 | < 1000 | 500 | 210 to 211 | O=C1c2ccccc2C(=O)N1CCCOc1ccc2c(=O)cc(N3CCOCC3)oc2c1 [Compound 422, N-[3-(2-(Morpholin-4-yl)-4-oxo-4H-chromen-7-yloxy)-propyl]-phthalimide] | 1.68
